# Tests used:
# Format in all cases: cell-based
# [1] = test system: Fusarium culmorum; test: Fusarium culmorum (foot rot of cereals) in vitro test, radial growth on Potato Dextrose Agar; conditions: for inhibition of growth at 300 ppm: Fusarium culmorum, 168 h, read-out: % control compared to the untreated check (radial growth); for % control compared to the untreated check (radial growth): 300 ppm, seven days, 25° C.
# [2] = test system: Pyricularia oryzae; test: microbe, parasite or virus in culture; conditions: 168 h, read-out: % control compared to the untreated check (radial growth)
# [3] = test system: Botrytis cinerea; test: Botrytis cinerea (gray mold) in vitro test, radial growth on Potato Dextrose Agar; conditions: 168 h, 300 ppm, seven days, 22° C., read-out: % (control) compared to the untreated check (radial growth)
# [4] = test system: Alternaria solani; test: Alternaria solani (early blight of tomato/potato) in vitro test, radial growth on Potato Dextrose Agar; conditions: 168 h, 300 ppm, seven days, 25° C., read-out: % control compared to the untreated check (radial growth)
# [5] = test system: Septoria lycopersici; test: Septoria lycopersici (leaf spot of tomato) in vitro test, radial growth on Potato Dextrose Agar; conditions: 168 h, seven days, 25° C., read-out: % control compared to the untreated check (radial growth)
# [6] = test system: Rhizoctonia solani; test: Rhizoctonia solani (rice sheath blight/potato black scurf) in vitro test, radial growth on Potato Dextrose Agar; conditions: 168 h, 300 ppm, seven days, 25° C., read-out: % control compared to the untreated check (radial growth)
# [7] = test system: Colletotrichum capsici; test: Colletotrichum capsici (anthracnose) in vitro test, radial growth on Potato Dextrose Agar; conditions: Colletotrichum truncatum, 168 h; 300 ppm; seven days, 25° C.; read-out: % control compared to the untreated check (radial growth)
SMILES,inhibition of growth at 300 ppm [1] [%],inhibition of growth at 300 ppm [2] [%],inhibition of growth at 300 ppm [3] [%],inhibition of growth at 300 ppm [4] [%],inhibition of growth at 300 ppm [5] [%],inhibition of growth at 300 ppm [6] [%],inhibition of growth at 300 ppm [7] [%],% control compared to the untreated check (radial growth) [1] [%]
"Cc1cc(N=CN2CCOCC2)c(C)cc1Cc1ccccc1F [Compound 55, N-(4-(2-fluorobenzyl)-2,5-dimethylphenyl)-1-morpholinomethanimine]",75,> 75,> 80,> 75,> 70,> 80,–,–
"Cc1cc(N=CN2CCOCC2)c(C)cc1Cc1ccc(F)cc1 [Compound 56, N-(4-(4-fluorobenzyl)-2,5-dimethylphenyl)-1-morpholinomethanimine]",75,> 75,> 80,> 75,> 70,> 80,–,–
"CCN(C)C=Nc1cc(C)c(Cc2cccc(Cl)c2)cc1Cl [Compound 78, N′-(2-chloro-4-(3-chlorobenzyl)-5-methylphenyl)-N-ethyl-N-methylformimidamide]",75,> 75,> 80,> 75,–,> 80,> 80,–
"CCN(C)C=Nc1cc(C)c(Cc2ccc(Cl)cc2)cc1Cl [Compound 79, N′-(2-chloro-4-(4-chlorobenzyl)-5-methylphenyl)-N-ethyl-N-methylformimidamide]",75,> 75,> 80,> 75,–,> 80,> 80,–
"CCN(C)C=Nc1cc(C)c(Cc2cccc(C(F)(F)F)c2)cc1Cl [Compound 80, N′-(2-chloro-5-methyl-4-(3-(trifluoromethyl)benzyl)phenyl)-N-ethyl-N-methylformimidamide]",75,> 75,> 80,> 75,–,> 80,> 80,–
"Cc1cc(N=CN(C)CC2CC2)c(C)cc1Cc1ccccc1F [Compound 87, N-(cyclopropylmethyl)-N-(4-(2-fluorobenzyl)-2,5-dimethylphenyl)-N-methylformimidamide]",–,–,–,–,–,–,–,75
"CCN(C)C=Nc1cc(C)c(Cc2ccc(F)cc2Cl)cc1Cl [Compound 99, N′-(2-chloro-4-(2-chloro-4-fluorobenzyl)-5-methylphenyl)-N-ethyl-N-methylformimidamide]",75,> 75,> 80,> 75,–,> 80,> 80,–
"CCN(C)C=Nc1cc(C)c(Cc2ccc(F)c(C)c2)cc1Cl [Compound 119, N′-(2-chloro-4-(4-fluoro-3-methylbenzyl)-5-methylphenyl)-N-ethyl-N-methylformimidamide]",75,> 75,> 80,> 75,–,> 80,> 80,–
"CCN(C)C=Nc1cc(C)c(Cc2ccc(OC(F)(F)F)cc2)cc1Cl [Compound 121, N′-(2-chloro-5-methyl-4-(4-(trifluoromethoxy)benzyl)phenyl)-N-ethyl-N-methylformimidamide]",75,> 75,> 80,> 75,–,> 80,> 80,–
"CCN(C)C=Nc1cc(C)c(Cc2cc(F)cc(F)c2)cc1C [Compound 132, N′-(4-(3,5-difluorobenzyl)-2,5-dimethylphenyl)-N-ethyl-N-methylformimidamide]",75,> 75,> 80,> 75,–,> 80,> 80,–
"CCN(C)C=Nc1cc(C)c(Cc2ccc(C(F)(F)F)c(F)c2)cc1Cl [Compound 137, N′-(2-chloro-4-(3-fluoro-4-(trifluoromethyl)benzyl)-5-methylphenyl)-N-ethyl-N-methylformimidamide]",75,> 75,> 80,> 75,–,> 80,> 80,–
"CCN(C)C=Nc1cc(C)c(Cc2c(Cl)cccc2Cl)cc1C [Compound 153, N′-(4-(2,6-dichlorobenzyl)-2,5-dimethylphenyl)-N-ethyl-N-methylformimidamide]",75,> 75,> 80,> 75,–,> 80,> 80,–
"CCN(C)C=Nc1cc(C)c(Cc2c(F)cccc2Cl)cc1C [Compound 155, N′-(4-(2-chloro-6-fluorobenzyl)-2,5-dimethylphenyl)-N-ethyl-N-methylformimidamide]",75,> 75,> 80,> 75,–,> 80,> 80,–
"CCN(C)C=Nc1cc(C)c(Cc2cc(F)cc(OC)c2)cc1C [Compound 156, N-ethyl-N′-(4-(3-fluoro-5-methoxybenzyl)-2,5-dimethylphenyl)-N-methylformimidamide]",75,> 75,> 80,> 75,–,> 80,> 80,–
"CCN(C)C=Nc1cc(C)c(Cc2cccc(C)c2C)cc1Cl [Compound 170, N-(2-chloro-4-(2,3-dimethylbenzyl)-5-methylphenyl)-N-ethyl-N-methylformimidamide]",–,–,–,–,–,–,–,75
"CCN(C)C=Nc1cc(C)c(Cc2ccc(F)c(C(F)(F)F)c2)cc1Cl [Compound 181, N′-(2-chloro-4-(4-fluoro-3-(trifluoromethyl)benzyl)-5-methylphenyl)-N-ethyl-N-methylformimidamide]",75,> 75,> 80,> 75,–,> 80,–,–
"CCN(C)C=Nc1cc(C)c(C(C#N)c2ccc(F)cc2)cc1Cl (centres unmarked) [Compound 189, N′-(2-chloro-4-(cyano(4-fluorophenyl)methyl)-5-methylphenyl)-N-ethyl-N-methylformimidamide]",75,> 75,> 80,–,–,> 80,–,–
"CCN(C)C=Nc1cc(C)c(Cc2ccc(C)cc2)cc1F [Compound 211, N-ethyl-N-(2-fluoro-5-methyl-4-(4-methylbenzyl)phenyl)-N-methylformimidamide]",–,–,–,–,–,–,–,75
"CCN(C)C=Nc1cc(C)c(Cc2cccc(OC(F)(F)F)c2)cc1C1CC1 [Compound 224, N′-(2-cyclopropyl-5-methyl-4-(3-(trifluoromethoxy)benzyl)phenyl)-N-ethyl-N-methylformimidamide]",75,> 75,> 80,> 75,> 70,> 80,–,–
"CCN(C)C=Nc1cc(Cl)c(C(C)(C(=O)N(C)C)c2cccc(F)c2)cc1C (centres unmarked) [Compound 239, 2-(2-chloro-4-(((ethyl(methyl)amino)methylene)amino)-5-methylphenyl)-2-(3-fluorophenyl)-N,N-dimethylpropanamide]",75,> 75,> 80,> 75,–,> 80,> 80,–
"CCN(C)C=Nc1cc(C#N)c(Cc2cccc(F)c2)cc1C [Compound 250, N′-(5-cyano-4-(3-fluorobenzyl)-2-methylphenyl)-N-ethyl-N-methylformimidamide]",75,> 75,> 80,> 75,> 70,> 80,–,–
"CCN(C)C=Nc1cc(F)c(Cc2ccccc2Cl)cc1F [Compound 253, N′-(4-(2-chlorobenzyl)-2,5-difluorophenyl)-N-ethyl-N-methylformimidamide]",75,> 75,> 80,> 75,–,> 80,–,–
"CCN(C)C=Nc1cc(F)c(Cc2cccc(F)c2)cc1F [Compound 269, N′-(2,5-difluoro-4-(3-fluorobenzyl)phenyl)-N-ethyl-N-methylformimidamide]",75,> 75,> 80,> 75,–,> 80,> 80,–
"CCN(C)C=Nc1ccc(Cc2ccccc2Cl)c2ccccc12 [Compound 270, N′-(4-(2-chlorobenzyl)naphthalen-1-yl)-N-ethyl-N-methylformimidamide]",–,> 75,> 80,> 75,> 70,> 80,> 80,–
